The text below walks through data of ChEMBL document CHEMBL3822445, “Histone demethylating agents as potential S-adenosyl-l-methionine-competitors” (Medchemcomm, 2016).

The structures appear in SMILES notation. Activity calls are given as the source filed them. No cut-off for these calls is given here.

One assay relates to MCF7. Put plainly: Inhibition of DNA methylation in human MCF7 cells assessed as reduction in H3K9me3 levels at 3 uM after 48 hrs by Western blot analysis. It is filed as cell-based.
Conditions: not given
On the technique in general: A western blot detects proteins with antibodies after separation by electrophoresis.
As to `COc1cc2nc(N3CCCN(C)CC3)nc(NC3CCN(Cc4ccccc4)CC3)c2cc1OC`, the inhibition (as a rule, the relative decrease from the control value, in per cent) turned out to be 80%.

The next assay has as its system MCF7. Put plainly: Inhibition of DNA methylation in human MCF7 cells assessed as reduction in H3K27me3 levels at 15 uM after 48 hrs by Western blot analysis. It is filed as cell-based.
Conditions: not given
As to `CCCCN1C(=O)[C@@H]2Cc3c([nH]c4ccccc34)CN2C1=O`, the inhibition entry was “inactive”.

For another assay, the system named is MCF7. Put plainly: Inhibition of DNA methylation in human MCF7 cells assessed as reduction in H3K9me3 levels at 15 uM after 48 hrs by Western blot analysis. Type of assay: cell-based.
Conditions: not given
On to `CCCCN1C(=O)[C@@H]2Cc3c([nH]c4ccccc34)CN2C1=O`, for which the inhibition result was “inactive”.

The next assay has as its system MCF7. Briefly: Inhibition of DNA methylation in human MCF7 cells assessed as reduction in H3K27me3 levels at 3 uM after 48 hrs by Western blot analysis. It is filed as cell-based.
Conditions: not given
Regarding `COc1cc2nc(N3CCCN(C)CC3)nc(NC3CCN(Cc4ccccc4)CC3)c2cc1OC`, the inhibition amounted to 25%.

The test system of the next assay is MCF7. Briefly: Antiproliferative activity against human MCF7 cells after 48 to 72 hrs by MTT assay. It is filed as functional, cell-based.
Conditions: not given
With `CCCCN1C(=O)[C@@H]2Cc3c([nH]c4ccccc34)CN2C1=O`, half-maximal inhibition (IC50) required 37.5 µM.

Test system in a further assay: not listed separately
Put plainly: Antiproliferative activity against human H460 cells after 48 to 72 hrs by MTT assay. Type of assay: functional, cell-based. Particulars: NCI-H460. A general note: Tetrazolium assays rely on reduction of a dye to a coloured formazan, in cell work by metabolically active cells.
In the case of `CCCCN1C(=O)[C@@H]2Cc3c([nH]c4ccccc34)CN2C1=O`, the IC50 (as a rule, the concentration at which inhibition is half-maximal) is above 20 µM.

Another assay deals with MSTO-211H. Briefly: Antiproliferative activity against human MSTO-211H cells after 48 to 72 hrs by MTT assay. It is filed as functional, cell-based.
Conditions: not given
`CCCCN1C(=O)[C@@H]2Cc3c([nH]c4ccccc34)CN2C1=O` returned an IC50 above 20 µM.

In the next assay the test system is MCF7. Put plainly: Cell cycle arrest in human MCF7 cells assessed as accumulation at S phase at 15 uM after 24 to 72 hrs by flow cytometry relative to control. It is filed as functional.
Conditions: not given
Turning to `CCCCN1C(=O)[C@@H]2Cc3c([nH]c4ccccc34)CN2C1=O`, the Activity came to 10.8%.

For the next assay, the system named is MCF7. Put plainly: Induction of apoptosis in human MCF7 cells assessed as viable cells at 15 uM after 48 hrs by AnnexinV-FITC staining based flow cytometry (reference value: 74.4 +/- 9.1 %). Type of assay: functional. The following applies: MCF7, 48 h, read-out: Activity.
For `CCCCN1C(=O)[C@@H]2Cc3c([nH]c4ccccc34)CN2C1=O`, the viability at 15 µM was 69%.
On the same count and under the same terms, under `COc1cc2nc(N3CCCN(C)CC3)nc(NC3CCN(Cc4ccccc4)CC3)c2cc1OC` stands 67.2%.

A further assay has as its system MCF7. Briefly: Induction of apoptosis in human MCF7 cells assessed as viable cells at 15 uM after 72 hrs by AnnexinV-FITC staining based flow cytometry (reference value: 60.5 +/- 6 %). Type of assay: functional. Particulars: MCF7, 72 h, read-out: Activity. For orientation: A flow cytometer gives signals particle by particle.
Consider `CCCCN1C(=O)[C@@H]2Cc3c([nH]c4ccccc34)CN2C1=O`, for which the viability at 15 µM turned out to be 47.7%.
Turning to `COc1cc2nc(N3CCCN(C)CC3)nc(NC3CCN(Cc4ccccc4)CC3)c2cc1OC`, the viability at 15 µM was 65.8%.

Another assay has as its system MCF7. Briefly: Induction of apoptosis in human MCF7 cells assessed as early apoptotic cells at 15 uM after 48 hrs by AnnexinV-FITC staining based flow cytometry (reference value: 7.8 +/- 5.3 %). Type of assay: functional.
Conditions: not given
Take `CCCCN1C(=O)[C@@H]2Cc3c([nH]c4ccccc34)CN2C1=O`: the Activity is reported as 13%.
As to `COc1cc2nc(N3CCCN(C)CC3)nc(NC3CCN(Cc4ccccc4)CC3)c2cc1OC`, the Activity is listed as 12.6%.

For another assay, the system named is MCF7. Briefly: Induction of apoptosis in human MCF7 cells assessed as early apoptotic cells at 15 uM after 72 hrs by AnnexinV-FITC staining based flow cytometry (reference value: 20.1 +/- 7.3 %).
Conditions: not given
It is filed as functional.
Consider `CCCCN1C(=O)[C@@H]2Cc3c([nH]c4ccccc34)CN2C1=O`, for which the Activity worked out at 27.9%.
On the same count and under the same terms, under `COc1cc2nc(N3CCCN(C)CC3)nc(NC3CCN(Cc4ccccc4)CC3)c2cc1OC` stands 13.5%.

Another assay has as its system MCF7. Put plainly: Induction of apoptosis in human MCF7 cells assessed as late apoptotic cells at 15 uM after 48 hrs by AnnexinV-FITC staining based flow cytometry (reference value: 7.6 +/- 5.9 %).
Conditions: not given
It is filed as functional.
For the compound `CCCCN1C(=O)[C@@H]2Cc3c([nH]c4ccccc34)CN2C1=O`, the Activity was found to be 13.8%.
For `COc1cc2nc(N3CCCN(C)CC3)nc(NC3CCN(Cc4ccccc4)CC3)c2cc1OC`, the Activity was 13.8%.

The test system of the next assay is MCF7. Briefly: Induction of apoptosis in human MCF7 cells assessed as late apoptotic cells at 15 uM after 72 hrs by AnnexinV-FITC staining based flow cytometry (reference value: 11.8 +/- 2.2 %). Type of assay: functional.
Conditions: not given
Consider `CCCCN1C(=O)[C@@H]2Cc3c([nH]c4ccccc34)CN2C1=O`, for which the Activity came out at 17.7%.
The same measure, in the same setting: then `COc1cc2nc(N3CCCN(C)CC3)nc(NC3CCN(Cc4ccccc4)CC3)c2cc1OC`, with 14.3%.

For the next assay, the system named is MCF7. Put plainly: Induction of apoptosis in human MCF7 cells assessed as necrotic cells at 15 uM after 48 hrs by AnnexinV-FITC staining based flow cytometry (reference value: 10.2 +/- 1.9 %). It is filed as functional.
Conditions: not given
On to `CCCCN1C(=O)[C@@H]2Cc3c([nH]c4ccccc34)CN2C1=O`, for which the Activity was found to be 4.2%.
Still for that read-out and setting: then `COc1cc2nc(N3CCCN(C)CC3)nc(NC3CCN(Cc4ccccc4)CC3)c2cc1OC`, with 6.3%.

In the next assay the test system is MCF7. Put plainly: Induction of apoptosis in human MCF7 cells assessed as necrotic cells at 15 uM after 72 hrs by AnnexinV-FITC staining based flow cytometry (reference value: 7.6 +/- 1 %). It is filed as functional.
Conditions: not given
For the compound `CCCCN1C(=O)[C@@H]2Cc3c([nH]c4ccccc34)CN2C1=O`, the Activity was 6.7%.
`COc1cc2nc(N3CCCN(C)CC3)nc(NC3CCN(Cc4ccccc4)CC3)c2cc1OC`: the Activity is 6.3%.

The next assay deals with T1, Histone-lysine N-methyltransferase EHMT2 (Homo sapiens) (UniProt Q96KQ7).
T1 sequence (whole entry): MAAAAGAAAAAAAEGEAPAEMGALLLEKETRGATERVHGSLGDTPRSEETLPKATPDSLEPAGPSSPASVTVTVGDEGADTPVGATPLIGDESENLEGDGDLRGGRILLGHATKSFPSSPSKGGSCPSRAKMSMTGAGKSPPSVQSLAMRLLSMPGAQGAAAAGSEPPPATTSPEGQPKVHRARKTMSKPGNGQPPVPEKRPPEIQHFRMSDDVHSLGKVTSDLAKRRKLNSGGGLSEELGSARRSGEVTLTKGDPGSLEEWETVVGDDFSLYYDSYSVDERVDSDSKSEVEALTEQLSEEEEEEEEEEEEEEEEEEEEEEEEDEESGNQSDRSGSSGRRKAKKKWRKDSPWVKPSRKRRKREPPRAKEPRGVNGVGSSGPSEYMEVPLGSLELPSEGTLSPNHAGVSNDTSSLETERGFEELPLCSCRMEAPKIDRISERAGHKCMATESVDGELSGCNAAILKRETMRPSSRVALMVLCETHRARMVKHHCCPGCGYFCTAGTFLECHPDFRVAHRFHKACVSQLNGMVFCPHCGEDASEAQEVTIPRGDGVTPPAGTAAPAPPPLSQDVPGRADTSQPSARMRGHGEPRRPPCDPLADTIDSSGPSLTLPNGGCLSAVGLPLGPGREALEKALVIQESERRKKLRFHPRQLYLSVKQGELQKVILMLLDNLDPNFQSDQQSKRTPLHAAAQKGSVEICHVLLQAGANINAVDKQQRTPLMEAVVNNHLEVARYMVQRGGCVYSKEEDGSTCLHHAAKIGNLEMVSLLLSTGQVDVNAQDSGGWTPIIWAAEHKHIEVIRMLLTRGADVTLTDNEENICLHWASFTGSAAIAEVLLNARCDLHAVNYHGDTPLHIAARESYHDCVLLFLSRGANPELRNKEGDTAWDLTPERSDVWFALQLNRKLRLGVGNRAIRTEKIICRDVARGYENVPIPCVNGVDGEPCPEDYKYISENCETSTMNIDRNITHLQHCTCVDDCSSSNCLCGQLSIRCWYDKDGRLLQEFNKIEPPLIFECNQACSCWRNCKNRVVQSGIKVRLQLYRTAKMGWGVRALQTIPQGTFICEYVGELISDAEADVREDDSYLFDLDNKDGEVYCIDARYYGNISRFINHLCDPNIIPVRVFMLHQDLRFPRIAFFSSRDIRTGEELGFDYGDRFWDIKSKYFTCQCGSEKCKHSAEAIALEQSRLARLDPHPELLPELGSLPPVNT
Briefly: Inhibition of G9a in human MCF7 nuclear extracts assessed as reduction in H3K9 levels at 15 uM after 48 hrs. It is filed as cell-based.
Conditions: not given
Consider `CCCCN1C(=O)[C@@H]2Cc3c([nH]c4ccccc34)CN2C1=O`, for which the inhibition result was “Active”.
The same measure, in the same setting: then `COc1cc2nc(N3CCCN(C)CC3)nc(NC3CCN(Cc4ccccc4)CC3)c2cc1OC`, with “Active”.

The target of the next assay is T1, Histone-lysine N-methyltransferase EHMT2 (Homo sapiens). Put plainly: Inhibition of G9a in human MCF7 nuclear extracts assessed as reduction in H3K27 levels at 15 uM after 48 hrs. It is filed as cell-based.
Conditions: not given
Turning to `COc1cc2nc(N3CCCN(C)CC3)nc(NC3CCN(Cc4ccccc4)CC3)c2cc1OC`, the inhibition result was “Active”.

Test system in another assay: not listed separately
Briefly: Antiproliferative activity against human Ovarian cancer LA#83 cells assessed as cell survival at 20 uM after 72 hrs by MTT assay relative to control. Type of assay: functional. Particulars: read-out: Survival.
On to `CCCCN1C(=O)[C@@H]2Cc3c([nH]c4ccccc34)CN2C1=O`, for which the viability at 20 µM stood at 81.9%.
Still for that read-out and setting: then `COc1cc2nc(N3CCCN(C)CC3)nc(NC3CCN(Cc4ccccc4)CC3)c2cc1OC`, with 57%.

Test system in another assay: not listed separately
Briefly: Antiproliferative activity against human Ovarian cancer DC#83 cells assessed as cell survival at 20 uM after 72 hrs by MTT assay relative to control. It is filed as functional. Particulars: read-out: Survival.
Turning to `CCCCN1C(=O)[C@@H]2Cc3c([nH]c4ccccc34)CN2C1=O`, the viability at 20 µM was determined as 93.3%.
On the same count and under the same terms, then `COc1cc2nc(N3CCCN(C)CC3)nc(NC3CCN(Cc4ccccc4)CC3)c2cc1OC`, with 86.2%.

Test system in the next assay: not listed separately
Put plainly: Antiproliferative activity against human Ovarian cancer LA#110 cells assessed as cell survival at 20 uM after 72 hrs by MTT assay relative to control. The following applies: read-out: Survival. Type of assay: functional.
In the case of `CCCCN1C(=O)[C@@H]2Cc3c([nH]c4ccccc34)CN2C1=O`, the viability at 20 µM came out at 66.7%.
On the same count and under the same terms, under `COc1cc2nc(N3CCCN(C)CC3)nc(NC3CCN(Cc4ccccc4)CC3)c2cc1OC` stands 50.2%.

Test system in a further assay: not listed separately
Briefly: Antiproliferative activity against human Ovarian cancer DC#110 cells assessed as cell survival at 20 uM after 72 hrs by MTT assay relative to control. It is filed as functional. Particulars: read-out: Survival.
`CCCCN1C(=O)[C@@H]2Cc3c([nH]c4ccccc34)CN2C1=O`: the viability at 20 µM was 80.8%.
On the same count and under the same terms, under `COc1cc2nc(N3CCCN(C)CC3)nc(NC3CCN(Cc4ccccc4)CC3)c2cc1OC` stands 73%.

The test system of the next assay is MCF7. Put plainly: Inhibition of DNA methylation in human MCF7 cells assessed as decrease in 5-methylcytosine level by ELISA. Type of assay: cell-based.
Conditions: not given
For the compound `CCCCN1C(=O)[C@@H]2Cc3c([nH]c4ccccc34)CN2C1=O`, the inhibition entry was “Active”.

The subject of a further assay is MCF7. Briefly: Inhibition of DNA methylation in human MCF7 cells assessed as decrease in methylation of RARbeta DNA by qPCR method. Type of assay: cell-based.
Conditions: not given
In the case of `CCCCN1C(=O)[C@@H]2Cc3c([nH]c4ccccc34)CN2C1=O`, the inhibition entry was “inactive”.
